# Results reported in US12414990B2, “Use of HLA-A*11:01-restricted hepatitis B virus (HBV) peptides for identifying HBV-specific CD8+ T cells” (AGENCY FOR SCIENCE, TECHNOLOGY AND RESEARCH, priority 2019, dated 2025).
# Tested on: HLA-A*11:01-restricted antigen-specific CD8+ T cells in patient's PBMC
# Assay: Highly multiplexed combinatorial pMHC tetramer staining with mass cytometry (epitope mapping, frequency of antigen-specific CD8+ T cells)
# [1] = Immune Active (IA) patients, donors with tetramer+ CD8+ T cell frequency > 0.002% / donors tested
# [2] = Immune Tolerant (IT) patients, donors with tetramer+ CD8+ T cell frequency > 0.002% / donors tested
# [3] = acute resolved (R) patients, donors with tetramer+ CD8+ T cell frequency > 0.002% / donors tested
# [4] = Inactive Carrier (InA) patients, donors with tetramer+ CD8+ T cell frequency > 0.002% / donors tested
# [5] = patients with detected epitope-specific CD8+ T cells / patients tested, Immune Active (IA) group, Freq > 0.002%
# [6] = patients with detected epitope-specific CD8+ T cells / patients tested, Immune Tolerant (IT) group, Freq > 0.002%
# [7] = patients with detected epitope-specific CD8+ T cells / patients tested, Inactive Carrier (InA) group, Freq > 0.002%
# [8] = patients with detected epitope-specific CD8+ T cells / patients tested, acute resolved (R) group, Freq > 0.002%
# [9] = Acute resolved (R) patients, patients with detected tetramer+ CD8+ T cells (frequency > 0.002%) / patients in the group, per epitope cluster
# [10] = Immune Active (IA) CHB patients, patients with detected tetramer+ CD8+ T cells (frequency > 0.002%) / patients in the group, per epitope cluster
# [11] = Immune Tolerant (IT) CHB patients, patients with detected tetramer+ CD8+ T cells (frequency > 0.002%) / patients in the group, per epitope cluster
# [12] = Inactive Carrier (InA) CHB patients, patients with detected tetramer+ CD8+ T cells (frequency > 0.002%) / patients in the group, per epitope cluster
sequence,measurement,setting,value
TVNAHQVLPK,Hits (Freq > 0.002%) IA,[1],3/13
same,Hits (Freq > 0.002%) IT,[2],1/12
same,Hits (Freq > 0.002%) R,[3],2/12
LVYRPTTGR,Hits (Freq > 0.002%) IA,[1],1/12
same,Hits (Freq > 0.002%) InA,[4],1/13
ATVLMGLGK,Hits (Freq > 0.002%) IA,[5],1/12
same,Hits (Freq > 0.002%) IT,[6],1/8
same,Hits (Freq > 0.002%) InA,[7],1/13
STQVSWPK,Hits (Freq > 0.002%) IT,[2],2/8
same,Hits (Freq > 0.002%) R,[3],1/12
GVWIRTPPAYR,Hits (Freq > 0.002%) InA,[7],1/13
RTQSPRRRR,Hits (Freq > 0.002%) IA,[5],6/12
same,Hits (Freq > 0.002%) IT,[6],1/8
same,Hits (Freq > 0.002%) InA,[7],5/13
same,Hits (Freq > 0.002%) R,[8],2/12
KIKMCFRK,Hits (Freq > 0.002%) IT,[2],2/8
same,Hits (Freq > 0.002%) R,[3],1/12
MLLYKTYGRK,Hits (Freq > 0.002%) InA,[4],1/13
TTKRDLGMSK,Hits (Freq > 0.002%) IA,[5],2/12
same,Hits (Freq > 0.002%) IT,[6],1/8
RSQSPRRRRSK,Hits (Freq > 0.002%) IT,[6],8/8
same,Hits (Freq > 0.002%) InA,[7],6/13
same,Hits (Freq > 0.002%) R,[8],6/12
TVSAISSILSK,Hits (Freq > 0.002%) R,[9],1/12
same,Hits (Freq > 0.002%) IA,[10],2/12
same,Hits (Freq > 0.002%) IT,[11],1/8
LTINENRRLK,Hits (Freq > 0.002%) IA,[10],1/12
GSTHVSWPK,Hits (Freq > 0.002%) IA,[1],1/12
same,Hits (Freq > 0.002%) IT,[2],1/8
KSGAIKVLK,Hits (Freq > 0.002%) InA,[7],1/13
SVQRNLPFER,Hits (Freq > 0.002%) IA,[5],4/12
same,Hits (Freq > 0.002%) IT,[6],4/8
same,Hits (Freq > 0.002%) InA,[7],6/13
same,Hits (Freq > 0.002%) R,[8],3/12
STISSILSK,Hits (Freq > 0.002%) IA,[10],1/12
same,Hits (Freq > 0.002%) InA,[12],1/13
AVVRRRCRSPR,Hits (Freq > 0.002%) IA,[1],6/12
same,Hits (Freq > 0.002%) IT,[2],3/8
same,Hits (Freq > 0.002%) InA,[4],2/13
same,Hits (Freq > 0.002%) R,[3],1/12
SFSFGGFTFK,Hits (Freq > 0.002%) IA,[5],2/12
same,Hits (Freq > 0.002%) InA,[7],2/13
same,Hits (Freq > 0.002%) R,[8],1/12
KLVGINMSKK,Hits (Freq > 0.002%) InA,[7],1/13
TVPCFNPK,Hits (Freq > 0.002%) InA,[12],1/13
CSCPTVQASK,Hits (Freq > 0.002%) InA,[7],2/13
GTLPQEHIVLK,Hits (Freq > 0.002%) R,[3],1/12
TTSTGPCK,Hits (Freq > 0.002%) R,[9],1/12
same,Hits (Freq > 0.002%) IA,[10],1/12
RIINNQHR,Hits (Freq > 0.002%) IA,[1],1/12
same,Hits (Freq > 0.002%) R,[3],1/12
TTDLEAYFK,Hits (Freq > 0.002%) IA,[5],1/12
same,Hits (Freq > 0.002%) InA,[7],3/13
same,Hits (Freq > 0.002%) R,[8],1/12
SVLGPISGHVLK,Hits (Freq > 0.002%) InA,[7],2/13
VSLMLLYK,Hits (Freq > 0.002%) R,[3],1/12
TVNHYFQTR,Hits (Freq > 0.002%) IA,[10],4/12
same,Hits (Freq > 0.002%) IT,[11],5/8
same,Hits (Freq > 0.002%) InA,[12],5/13
GILPRSSVGPR,Hits (Freq > 0.002%) IA,[10],1/12
same,Hits (Freq > 0.002%) InA,[12],3/13
ATVQGQNLK,Hits (Freq > 0.002%) IA,[5],2/12
same,Hits (Freq > 0.002%) IT,[6],3/8
same,Hits (Freq > 0.002%) InA,[7],9/13
same,Hits (Freq > 0.002%) R,[8],4/12
MVSRLLLNR,Hits (Freq > 0.002%) IA,[5],1/12
STVPCFNPK,Hits (Freq > 0.002%) R,[9],1/12
NLNVSIPWTHK,Hits (Freq > 0.002%) R,[9],1/12
same,Hits (Freq > 0.002%) IA,[10],8/12
same,Hits (Freq > 0.002%) IT,[11],4/8
same,Hits (Freq > 0.002%) InA,[12],3/13
SSARSQSER,Hits (Freq > 0.002%) InA,[4],1/13
RTTWSIHAK,Hits (Freq > 0.002%) IA,[5],5/12
same,Hits (Freq > 0.002%) IT,[6],2/8
same,Hits (Freq > 0.002%) InA,[7],3/13
same,Hits (Freq > 0.002%) R,[8],3/12
QVLPKVLHK,Hits (Freq > 0.002%) IA,[1],1/12
RGNTRVSWPK,Hits (Freq > 0.002%) IA,[1],2/12
same,Hits (Freq > 0.002%) IT,[2],1/8
same,Hits (Freq > 0.002%) InA,[4],1/13
same,Hits (Freq > 0.002%) R,[3],1/12
MSMTDLEAYFK,Hits (Freq > 0.002%) IA,[5],1/12
same,Hits (Freq > 0.002%) R,[8],1/12
VTGGVFLVDK,Hits (Freq > 0.002%) IA,[1],1/12
KTAYSHLSTSK,Hits (Freq > 0.002%) R,[9],7/12
same,Hits (Freq > 0.002%) IT,[11],8/8
TSMFPSCCCTK,Hits (Freq > 0.002%) IA,[10],2/12
same,Hits (Freq > 0.002%) IT,[11],1/8
same,Hits (Freq > 0.002%) InA,[12],1/13
KVFVLGGCRHK,Hits (Freq > 0.002%) IA,[5],1/12
same,Hits (Freq > 0.002%) IT,[6],1/8
same,Hits (Freq > 0.002%) R,[8],2/12
